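These data come from cells grown in 96-well plates and exposed to compound for 48 hours at five concentrations. Abbreviation: GI50, concentration required for 50% inhibition of growth. At the TGI there is no net growth.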
Tests used:
Test in all cases: growth of human tumour cells (NCI), 48 h
MDA-MB-231 breast = test system: MDA-MB-231 breast
HOP-62 NSCLC = test system: HOP-62 NSCLC
CAKI-1 renal = test system: CAKI-1 renal
NCI-H23 lung = test system: NCI-H23 lung
NCI-H460 lung = test system: NCI-H460 lung
HCT-15 colon = test system: HCT-15 colon
RXF 393 renal = test system: RXF 393 renal
HCT-116 colon = test system: HCT-116 colon
K-562 leukemia = test system: K-562 leukemia
HOP-92 NSCLC = test system: HOP-92 NSCLC

SMILES	GI50 (MDA-MB-231 breast)	TGI (MDA-MB-231 breast)	GI50 (HOP-62 NSCLC)	TGI (HOP-62 NSCLC)	GI50 (CAKI-1 renal)	TGI (CAKI-1 renal)	GI50 (NCI-H23 lung)	TGI (NCI-H23 lung)	GI50 (NCI-H460 lung)	TGI (NCI-H460 lung)	GI50 (HCT-15 colon)	TGI (HCT-15 colon)	GI50 (RXF 393 renal)	TGI (RXF 393 renal)	GI50 (HCT-116 colon)	TGI (HCT-116 colon)	GI50 (K-562 leukemia)	TGI (K-562 leukemia)	GI50 (HOP-92 NSCLC)	TGI (HOP-92 NSCLC)
NC(CS/C(Cl)=C/Cl)C(=O)O (stereo unspecified)	> 100 µM	> 100 µM	4.64 µM	29.3 µM	72.5 µM	> 100 µM	56.5 µM	> 100 µM	0.427 µM	2 µM	28.7 µM	> 100 µM	> 44.6 µM	> 87.2 µM	34.6 µM	> 100 µM	33.4 µM	> 100 µM	33.2 µM	> 100 µM
COc1ccc(C(=O)COc2cccc(/C=C3\Oc4ccc5ccccc5c4C3=O)c2)cc1	11.9 µM	25.6 µM	14.9 µM	28.1 µM	10.7 µM	23.5 µM	3.38 µM	16.8 µM	20.6 µM	52.6 µM	2.94 µM	13.7 µM	0.545 µM	1.77 µM	2.31 µM	4.94 µM	1.53 µM	3.73 µM	0.0932 µM	25.6 µM
NC(N)=NCCCCCNc1noc(Cc2c[nH]c3cc(Br)ccc23)n1	8.05 µM	30.2 µM	5.84 µM	28.4 µM	66.7 µM	> 100 µM	8.2 µM	28.7 µM	12.4 µM	43.3 µM	60.5 µM	> 100 µM	20.2 µM	> 100 µM	9.78 µM	37 µM	9.4 µM	38.6 µM	2.96 µM	46.7 µM
C=CCSS/C=C/CS(=O)CC=C (stereo unspecified)		56.3 µM		> 100 µM		> 62.7 µM		> 100 µM		> 100 µM		> 100 µM		55.6 µM		27.3 µM		> 77.9 µM		> 100 µM
Cc1cc(S(=O)(=O)N/N=C(\Sc2cc(Cl)c(C)cc2S(N)(=O)=O)c2ccc(Cl)cc2)c(Cl)cc1Cl	34.2 µM	> 100 µM	> 100 µM	> 100 µM	61.8 µM	> 100 µM	26.7 µM	67.9 µM	> 100 µM	> 100 µM	> 100 µM	> 100 µM	54.8 µM	> 100 µM	79.4 µM	> 100 µM	67.7 µM	> 100 µM	47.6 µM	> 100 µM
Cc1cc2c(cc1Cl)SC(=Nc1ccc(Cl)cc1)N(S(=O)(=O)c1ccccc1)S2(=O)=O	2.79 µM	16 µM	13.5 µM	26.4 µM	5.37 µM	23.4 µM	1.55 µM	5.96 µM	11.8 µM	29.2 µM	2.77 µM	13 µM	17.2 µM	48.2 µM	9.78 µM	21.5 µM	9.19 µM	58.2 µM	5.39 µM	26.1 µM
COc1ccc2[nH]c3c4c(ccc3c2c1)C(=O)C=CC4=O		35.4 µM		> 94.4 µM		14.4 µM		30.2 µM		54.1 µM		11.4 µM		6.88 µM		13.9 µM		3.97 µM		7.64 µM
CC1CCC(=O)C(C(=O)CC2CC(=O)NC(=O)C2)C1 (stereo unspecified)		> 100 µM		> 100 µM		> 100 µM		> 100 µM		> 100 µM		> 100 µM		> 100 µM		> 100 µM		> 100 µM		> 100 µM
O=C(Nc1ccc(CO)cc1)c1coc2ccccc2c1=O	> 100 µM	> 100 µM	> 100 µM	> 100 µM	> 100 µM	> 100 µM	> 100 µM	> 100 µM	> 100 µM	> 100 µM	> 100 µM	> 100 µM	> 100 µM	> 100 µM	> 100 µM	> 100 µM	> 100 µM	> 100 µM	29.4 µM	> 100 µM
COc1ccc2ncn(-c3cc(O[C@H](C)c4ccccc4Cl)c(C(N)=O)s3)c2c1	0.0454 µM	> 17.3 µM	0.0192 µM	> 25 µM	0.189 µM	> 25 µM	0.0197 µM	> 18.3 µM	0.0133 µM	3.51 µM	0.0203 µM	> 25 µM	0.0105 µM	3.78 µM	0.021 µM	3.64 µM	0.0145 µM	> 25 µM	0.404 µM	8.01 µM
COc1ccc2c(c1)[C@@]13CCCC[C@H]1[C@@H](C2)N(C)CC3=O		36.4 µM		> 100 µM		> 100 µM		31.8 µM		69.5 µM		32.1 µM		29.1 µM		29.7 µM		> 100 µM		28.4 µM
O=C(Nc1ccc(-n2cc(-c3ccncc3)c(-c3ccc(Cl)c(O)c3)n2)cc1)Nc1ccc(Cl)c(C(F)(F)F)c1	1.66 µM	3.31 µM	1.68 µM	3.18 µM	3.01 µM	15.3 µM	1.67 µM	3.43 µM	1.7 µM	3.4 µM	1.31 µM	2.95 µM	0.755 µM	2.31 µM	1.29 µM	2.72 µM	1.89 µM	7.37 µM	1.57 µM	4.21 µM
N#CC(=NCCO)C1=C(O)c2ccccc2C1=O		> 100 µM		> 100 µM		> 100 µM		> 100 µM		> 100 µM		> 100 µM		> 100 µM		> 100 µM		> 100 µM		> 100 µM
CCOC(=O)c1c[nH]c2oc(/C=N/N3CC(CN4CCOCC4)OC3=O)cc2c1=O (stereo unspecified)		> 100 µM		> 100 µM		> 100 µM		> 100 µM		> 100 µM		> 100 µM		> 100 µM		> 100 µM		> 100 µM		> 100 µM
O=C(Nc1ccc(-c2ccccc2)cc1)C1CCN(S(=O)(=O)c2ccccc2Cl)CC1	18.2 µM	47.3 µM	18.8 µM	40.9 µM	53 µM	> 100 µM	76.2 µM	> 100 µM	40.8 µM	> 100 µM	77.4 µM	> 100 µM	2.09 µM	5 µM	39.4 µM	> 100 µM	71.8 µM	> 100 µM	32.2 µM	91.2 µM
CCn1c(CO)nn(-c2cc(O[C@@H](C)C(F)(F)F)c(C(=O)Nc3c(F)cccc3Cl)cc2F)c1=O	> 20.1 µM	> 100 µM	< 0.0255 µM	> 100 µM	< 0.0148 µM	> 100 µM	< 0.0438 µM	> 100 µM	< 0.01 µM	> 33.9 µM	< 0.01 µM	> 100 µM		> 100 µM	< 0.01 µM	> 100 µM	< 0.01 µM	> 100 µM	17.7 µM	> 100 µM
Cc1cc(I)cc(CN(C)CCCN2CCOCC2)c1O	39.7 µM	> 100 µM	38.6 µM	> 100 µM	29.4 µM	> 100 µM	72.3 µM	> 100 µM	35.4 µM	> 100 µM	29 µM	> 100 µM	11.8 µM	38.2 µM	24 µM	> 100 µM	18 µM	39.5 µM	15.7 µM	98.2 µM
[Au+].[Au+].[Au+].[c-]1nccn1Cc1ccccc1.[c-]1nccn1Cc1ccccc1.[c-]1nccn1Cc1ccccc1	22 µM	70.5 µM	5.99 µM	28.5 µM	11.2 µM	25.9 µM	4.97 µM	30.7 µM	11.6 µM	54.5 µM	19.9 µM	56.7 µM	2.03 µM	5.8 µM	6.68 µM	18.6 µM	3.82 µM	25 µM	2.34 µM	4.25 µM
O=C(CSC(c1ccccc1)c1ccccc1)N/N=C/c1ccc(Cl)cc1Cl	22.5 µM	> 100 µM	42.3 µM	> 100 µM	38.3 µM	83 µM	21.4 µM	56.9 µM	20.1 µM	49.8 µM	37.6 µM	> 100 µM	34.4 µM	89.1 µM	18.5 µM	44.4 µM	19 µM	96.6 µM	31.1 µM	83.4 µM
COc1ccc2c(O)cc3c(c2c1)[C@H](CCl)CN3C(=O)c1cc2cc(NC(=O)CCN3CCOCC3)ccc2[se]1	< 0.001 µM	0.105 µM	< 0.001 µM	2.03 µM	< 0.001 µM	< 0.001 µM	< 0.001 µM	0.00121 µM	< 0.001 µM	1.09 µM	< 0.001 µM		< 0.001 µM	< 0.001 µM	< 0.001 µM	> 3.25 µM	< 0.001 µM	> 10 µM	< 0.001 µM	0.00216 µM
C[C@]12CC[C@@H]3c4ccc(O)cc4CC[C@H]3[C@@H]1CC[C@@H]2NS(=O)(=O)c1cccc(F)c1	3.64 µM	13.6 µM	7.38 µM	21.9 µM	3.4 µM	13.5 µM	3.19 µM	13.5 µM	2.72 µM	7.18 µM	2.8 µM	11.3 µM	2.42 µM	7.4 µM	2.63 µM	7.33 µM	3.22 µM	15.2 µM	2.43 µM	8.64 µM
CCC(C)(C)c1ccc(OCCCCCCN2CCNCC2)cc1	1.44 µM	3.11 µM	2.32 µM	6.09 µM	2.26 µM	7.09 µM	2.85 µM	8.36 µM	1.94 µM	3.87 µM	1.66 µM	3.39 µM	1.47 µM	2.92 µM	1.7 µM	3.12 µM	1.7 µM	3.93 µM	1.21 µM	6.82 µM
C=C1C(=O)O[C@H]2/C=C(/C)C3=CC(=O)[C@@](C)(C[C@@H](OC(=O)/C(C)=C\C)C12)O3 (stereo partly specified)		11.5 µM		> 100 µM		0.432 µM		10.3 µM		11.8 µM		1.45 µM		1.5 µM		1.11 µM		1.84 µM		2.07 µM
Oc1cn(-c2ccc(Cl)cc2)nc1-c1n[nH]c(=S)n1C1CCCCC1	2.22 µM	> 90.7 µM	1.67 µM	> 100 µM	0.389 µM	> 100 µM	0.322 µM	1.98 µM	0.334 µM	> 100 µM	0.31 µM	> 100 µM	> 24.6 µM	> 100 µM	0.612 µM	39.8 µM	< 0.0427 µM		38.7 µM	> 100 µM
COc1ccc2c(c1)C(C)Cc1c(ncnc1-n1c(C)nc3ccccc31)N2C (stereo unspecified)	4.56 µM	28.2 µM	4.23 µM	24.6 µM	4.48 µM	78.8 µM	3.08 µM	18.5 µM	3.85 µM	14.4 µM	1.83 µM	16.9 µM	2.83 µM	9.21 µM	3.46 µM	16.2 µM	0.452 µM	13.3 µM	3.34 µM	17.4 µM
Cc1c(C2=C(Br)C(=O)N(C)C2=O)c(=O)n(C)c(=O)n1C		65.3 µM		> 100 µM		34.8 µM		42.9 µM		> 100 µM		45.2 µM		29 µM		40.9 µM		59.7 µM		34.4 µM
Nc1nc(SN=Nc2ccc(S(N)(=O)=O)cc2)c2[nH]cnc2n1	0.722 µM	> 100 µM	0.62 µM	> 100 µM	0.332 µM	6.57 µM	0.623 µM	> 100 µM	0.384 µM	13 µM	0.563 µM	> 100 µM	0.394 µM	5.52 µM	0.374 µM	15.1 µM	0.299 µM	> 100 µM	0.429 µM	22.4 µM
COc1cc(C2=C(c3cn(C)c4ccccc34)COC2=O)cc(OC)c1OC	0.34 µM	> 100 µM	0.123 µM	> 34.8 µM	0.0531 µM	3.42 µM	0.233 µM	3.04 µM	0.0532 µM	1.68 µM	0.0416 µM	2.28 µM	0.133 µM	0.555 µM	0.0396 µM		0.037 µM	> 100 µM	0.249 µM	4.91 µM

Reference: PubChem BioAssay (NCI)
